# Reference: ChEMBL document CHEMBL1201862, “PubChem BioAssay data set” (2004)
#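 The compound was tested at five concentrations on cells cultured in 96-well plates, with a 48-hour exposure period. The concentration for 50% growth inhibition is given as GI50.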 Active and inactive are the calls of the source. Cut-off read from the data, not from the text of the source: active = GI50 up to about 1.1 µM and inactive = higher.
# Legend:
# Experiment in all cases: growth of human tumour cells (NCI), 48 h
# NCI/ADR-RES = system: NCI/ADR-RES
# Malme-3M = system: Malme-3M
# IGROV-1 = system: IGROV-1
# CAKI-1 = system: CAKI-1
# HCT-15 = system: HCT-15
# SK-OV-3 = system: SK-OV-3
# HCT-116 = system: HCT-116
# SN12C = system: SN12C
# OVCAR-5 = system: OVCAR-5
# MDA-MB-435 = system: MDA-MB-435
# U-251 = system: U-251
# DU-145 = system: DU-145
# CCRF-CEM = system: CCRF-CEM
# MDA-MB-231 = system: MDA-MB-231
# RPMI-8226 = system: RPMI-8226
# SK-MEL-5 = system: SK-MEL-5
# OVCAR-3 = system: OVCAR-3
# UACC-62 = system: UACC-62
# T47D = system: T47D
# SK-MEL-28 = system: SK-MEL-28
# SNB-75 = system: SNB-75
# A549 = system: A549
# MCF7 = system: MCF7
# SF-539 = system: SF-539
# HCC 2998 = system: HCC 2998
# OVCAR-8 = system: OVCAR-8
# ACHN = system: ACHN
# PC-3 = system: PC-3
# M14 = system: M14
# Hs-578T = system: Hs-578T
# OVCAR-4 = system: OVCAR-4
# HL-60 = system: HL-60
# KM12 = system: KM12
# HT-29 = system: HT-29
# SK-MEL-2 = system: SK-MEL-2
# HOP-62 = system: HOP-62
# RXF 393 = system: RXF 393
# TK-10 = system: TK-10
# A498 = system: A498
# NCI-H460 = system: NCI-H460
# NCI-H522 = system: NCI-H522
# NCI-H226 = system: NCI-H226
# SF-268 = system: SF-268
# SR = system: SR
# SNB-19 = system: SNB-19
# MOLT-4 = system: MOLT-4
# EKVX = system: EKVX
# UO-31 = system: UO-31
# COLO 205 = system: COLO 205
# SF-295 = system: SF-295
# SW-620 = system: SW-620
# LOX IMVI = system: LOX IMVI
# NCI-H23 = system: NCI-H23
# MDA-N = system: MDA-N
# HOP-92 = system: HOP-92
# K562 = system: K562
# 786-0 = system: 786-0
# UACC-257 = system: UACC-257
smiles,measurement,setting,value
O=c1c2c(nc3[nH]ccn13)CCCC2,GI50,NCI/ADR-RES,> 10 µM (inactive)
same,GI50,Malme-3M,> 10 µM (inactive)
same,GI50,IGROV-1,> 10 µM (inactive)
same,GI50,CAKI-1,> 10 µM (inactive)
same,GI50,HCT-15,> 10 µM
same,GI50,SK-OV-3,> 10 µM (inactive)
same,GI50,HCT-116,> 10 µM (inactive)
same,GI50,SN12C,> 10 µM (inactive)
same,GI50,OVCAR-5,> 10 µM (inactive)
same,GI50,MDA-MB-435,> 10 µM (inactive)
same,GI50,U-251,> 10 µM (inactive)
same,GI50,DU-145,> 10 µM (inactive)
same,GI50,CCRF-CEM,> 10 µM (inactive)
same,GI50,MDA-MB-231,> 10 µM (inactive)
same,GI50,RPMI-8226,> 10 µM (inactive)
same,GI50,SK-MEL-5,> 10 µM (inactive)
same,GI50,OVCAR-3,> 10 µM (inactive)
same,GI50,UACC-62,> 10 µM (inactive)
same,GI50,T47D,> 10 µM (inactive)
same,GI50,SK-MEL-28,> 10 µM (inactive)
same,GI50,SNB-75,> 10 µM (inactive)
same,GI50,A549,> 10 µM (inactive)
same,GI50,MCF7,> 10 µM (inactive)
same,GI50,SF-539,> 10 µM (inactive)
same,GI50,HCC 2998,> 10 µM (inactive)
same,GI50,OVCAR-8,> 10 µM (inactive)
same,GI50,ACHN,> 10 µM (inactive)
same,GI50,PC-3,> 10 µM (inactive)
same,GI50,M14,> 10 µM (inactive)
same,GI50,Hs-578T,1.23 µM (inactive)
same,GI50,OVCAR-4,> 10 µM (inactive)
same,GI50,HL-60,> 10 µM (inactive)
same,GI50,KM12,> 10 µM (inactive)
same,GI50,HT-29,> 10 µM (inactive)
same,GI50,SK-MEL-2,> 10 µM (inactive)
same,GI50,HOP-62,> 10 µM (inactive)
same,GI50,RXF 393,> 10 µM (inactive)
same,GI50,TK-10,> 10 µM (inactive)
same,GI50,A498,> 10 µM (inactive)
same,GI50,NCI-H460,> 10 µM (inactive)
same,GI50,NCI-H522,> 10 µM (inactive)
same,GI50,NCI-H226,> 10 µM (inactive)
same,GI50,SF-268,> 10 µM (inactive)
same,GI50,SR,> 10 µM (inactive)
same,GI50,SNB-19,> 10 µM (inactive)
same,GI50,MOLT-4,> 10 µM (inactive)
same,GI50,EKVX,> 10 µM (inactive)
same,GI50,UO-31,> 10 µM (inactive)
same,GI50,COLO 205,> 10 µM (inactive)
same,GI50,SF-295,> 10 µM (inactive)
same,GI50,SW-620,> 10 µM (inactive)
same,GI50,LOX IMVI,> 10 µM (inactive)
same,GI50,NCI-H23,> 10 µM (inactive)
Cn1c(=O)c2[nH]c(Nc3cccc(Cl)c3)nc2n(C)c1=O,GI50,Malme-3M,3.65 µM (inactive)
same,GI50,IGROV-1,3.8 µM (inactive)
same,GI50,CAKI-1,4.75 µM (inactive)
same,GI50,HCT-15,4.99 µM
same,GI50,SK-OV-3,6.17 µM (inactive)
same,GI50,SN12C,5.77 µM (inactive)
same,GI50,MDA-N,4.21 µM (inactive)
same,GI50,HOP-92,2.78 µM (inactive)
same,GI50,MDA-MB-435,3.82 µM (inactive)
same,GI50,DU-145,4.76 µM (inactive)
same,GI50,CCRF-CEM,3.96 µM (inactive)
same,GI50,MDA-MB-231,7.48 µM (inactive)
same,GI50,K562,5.4 µM (inactive)
same,GI50,RPMI-8226,2.49 µM (inactive)
same,GI50,SK-MEL-5,4.28 µM (inactive)
same,GI50,UACC-62,3.17 µM (inactive)
same,GI50,786-0,4.4 µM (inactive)
same,GI50,T47D,2.86 µM (inactive)
same,GI50,SK-MEL-28,5.42 µM (inactive)
same,GI50,SNB-75,4.86 µM (inactive)
same,GI50,A549,5.6 µM (inactive)
same,GI50,MCF7,3.79 µM (inactive)
same,GI50,HCC 2998,4.27 µM (inactive)
same,GI50,OVCAR-8,6.17 µM (inactive)
same,GI50,PC-3,4.11 µM (inactive)
same,GI50,UACC-257,4.18 µM (inactive)
same,GI50,M14,5.6 µM (inactive)
same,GI50,OVCAR-4,4.05 µM (inactive)
same,GI50,HL-60,3.31 µM (inactive)
same,GI50,KM12,4.78 µM (inactive)
same,GI50,HT-29,3.99 µM (inactive)
same,GI50,HOP-62,4.67 µM (inactive)
same,GI50,RXF 393,2.05 µM (inactive)
same,GI50,TK-10,8.91 µM (inactive)
same,GI50,SF-268,6.98 µM (inactive)
same,GI50,MOLT-4,3.13 µM (inactive)
same,GI50,EKVX,4.16 µM (inactive)
same,GI50,COLO 205,3.6 µM (inactive)
same,GI50,SF-295,4.84 µM (inactive)
same,GI50,SW-620,5.78 µM (inactive)
same,GI50,LOX IMVI,7.13 µM (inactive)
same,GI50,NCI-H23,2.63 µM (inactive)
